According to ChEMBL document CHEMBL4613218, “Synthesis, in vitro and in vivo biological evaluation of novel graveolinine derivatives as potential anti-Alzheimer agents” (Bioorg Med Chem, 2020):
The source made the active and inactive calls. No cut-off for these calls is given here.

Assays:
[1] = molecular target: Amyloid-beta precursor protein (Homo sapiens) (UniProt P05067); experiment: Inhibition of self-induced human amyloid beta (1 to 42) peptide aggregation assessed as reduction in number of amyloid beta aggregates at 20 uM measured after 48 hrs by TEM analysis
Chain of Amyloid-beta precursor protein (Homo sapiens) (P05067 whole entry): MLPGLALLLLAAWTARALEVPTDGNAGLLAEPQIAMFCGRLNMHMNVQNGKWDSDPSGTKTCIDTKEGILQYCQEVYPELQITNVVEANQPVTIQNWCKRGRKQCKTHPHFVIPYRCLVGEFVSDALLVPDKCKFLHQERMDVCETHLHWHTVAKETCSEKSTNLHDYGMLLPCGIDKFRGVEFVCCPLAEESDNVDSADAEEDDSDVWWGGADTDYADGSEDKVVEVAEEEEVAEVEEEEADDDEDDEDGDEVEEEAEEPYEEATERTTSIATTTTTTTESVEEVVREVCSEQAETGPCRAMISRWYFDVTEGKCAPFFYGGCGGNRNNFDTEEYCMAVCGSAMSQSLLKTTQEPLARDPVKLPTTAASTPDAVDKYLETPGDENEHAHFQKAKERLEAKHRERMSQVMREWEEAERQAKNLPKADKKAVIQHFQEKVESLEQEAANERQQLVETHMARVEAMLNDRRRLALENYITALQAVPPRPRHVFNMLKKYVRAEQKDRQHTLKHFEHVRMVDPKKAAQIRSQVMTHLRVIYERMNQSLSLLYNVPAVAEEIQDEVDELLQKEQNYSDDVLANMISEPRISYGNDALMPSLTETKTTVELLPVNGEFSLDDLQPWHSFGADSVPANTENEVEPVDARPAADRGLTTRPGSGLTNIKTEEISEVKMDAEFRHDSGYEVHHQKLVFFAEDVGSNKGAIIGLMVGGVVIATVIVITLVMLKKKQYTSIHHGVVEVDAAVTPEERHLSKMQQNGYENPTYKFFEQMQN

HepG2 = experiment: Cytotoxicity against human HepG2 cells assessed as growth inhibition after 48 hrs by MTT assay; type: cell-based; conditions: HepG2, 48 h
Acetylcholinesterase = Acetylcholinesterase (Electrophorus electricus, UniProt O42275); experiment: Inhibition of electric eel AChE using acetylthiocholine chloride as substrate preincubated for 15 mins followed by substrate addition by Ellman's method
Chain of Acetylcholinesterase (O42275 whole entry): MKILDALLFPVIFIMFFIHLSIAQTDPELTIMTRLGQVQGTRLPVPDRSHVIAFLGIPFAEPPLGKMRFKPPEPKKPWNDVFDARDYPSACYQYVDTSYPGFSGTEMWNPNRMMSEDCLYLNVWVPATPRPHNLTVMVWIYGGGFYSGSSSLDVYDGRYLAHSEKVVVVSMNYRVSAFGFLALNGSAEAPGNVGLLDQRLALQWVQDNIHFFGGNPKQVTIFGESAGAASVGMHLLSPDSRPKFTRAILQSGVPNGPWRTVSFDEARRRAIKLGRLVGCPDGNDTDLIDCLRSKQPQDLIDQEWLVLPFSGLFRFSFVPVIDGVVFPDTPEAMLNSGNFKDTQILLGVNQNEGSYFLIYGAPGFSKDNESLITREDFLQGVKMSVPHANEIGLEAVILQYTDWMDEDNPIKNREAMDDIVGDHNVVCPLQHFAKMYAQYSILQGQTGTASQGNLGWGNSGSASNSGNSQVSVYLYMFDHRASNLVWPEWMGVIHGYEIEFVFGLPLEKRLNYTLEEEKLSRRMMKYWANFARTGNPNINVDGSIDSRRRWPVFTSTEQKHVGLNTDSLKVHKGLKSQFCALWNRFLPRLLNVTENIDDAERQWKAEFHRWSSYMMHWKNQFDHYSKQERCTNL

Cholinesterase = Cholinesterase (Equus caballus, UniProt P81908); experiment: Inhibition of equine serum BuChE using butyrylthiocholine chloride as substrate preincubated for 15 mins followed by substrate addition by Ellman's method
Chain of Cholinesterase (P81908 whole entry): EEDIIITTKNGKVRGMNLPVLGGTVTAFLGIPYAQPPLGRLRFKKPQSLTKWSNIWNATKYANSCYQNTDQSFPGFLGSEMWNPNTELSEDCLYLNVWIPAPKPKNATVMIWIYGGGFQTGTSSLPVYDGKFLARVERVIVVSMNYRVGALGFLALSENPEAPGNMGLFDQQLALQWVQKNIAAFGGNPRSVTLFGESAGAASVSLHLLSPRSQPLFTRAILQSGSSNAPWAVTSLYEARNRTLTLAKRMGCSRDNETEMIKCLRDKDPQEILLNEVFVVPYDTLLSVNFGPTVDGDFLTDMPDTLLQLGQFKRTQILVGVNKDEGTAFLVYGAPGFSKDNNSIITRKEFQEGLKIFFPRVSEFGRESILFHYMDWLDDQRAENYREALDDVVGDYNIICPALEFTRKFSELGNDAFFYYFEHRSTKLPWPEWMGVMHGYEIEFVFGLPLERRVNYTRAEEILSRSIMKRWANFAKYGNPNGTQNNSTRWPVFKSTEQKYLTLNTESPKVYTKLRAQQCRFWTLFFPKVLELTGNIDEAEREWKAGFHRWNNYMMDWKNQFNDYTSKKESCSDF

[2] = Cytotoxicity against human HepG2 cells assessed as inhibition of cell viability at 10 uM after 48 hrs by MTT assay relative to control; type: cell-based; conditions: read-out: INH
[3] = molecular target: Amyloid-beta precursor protein (Homo sapiens) (UniProt P05067); experiment: Inhibition of self-induced human amyloid beta (1 to 42) peptide aggregation at 20 uM measured after 48 hrs by ThT fluorescence assay relative to control
[4] = Cytotoxicity against rat PC12 cells assessed as inhibition of cell viability at 10 uM after 48 hrs by MTT assay relative to control; type: cell-based, PC-12; conditions: read-out: INH
[5] = Selectivity index, ratio of IC50 for electric eel AChE to IC50 for equine serum BuChE
PC-12 = experiment: Cytotoxicity against rat PC12 cells assessed as growth inhibition after 48 hrs by MTT assay; type: cell-based; conditions: PC-12, 48 h
Mus musculus [6] = experiment: (§1) Antialzheimer activity against scopolamine-induced cognition impairment ICR mouse model assessed as increase in path length in target quadrant at 20 umol/kg, po treated 30 mins prior to scopolamine challenge and measured at 30 mins post-scopolamine challenge on day 15 of probe trial by Morris water maze test; type: functional, organism-based
Mus musculus [7] = experiment: Antialzheimer activity against scopolamine-induced cognition impairment ICR mouse model assessed as mean escape latency time at 20 umol/kg, po treated 30 mins prior to scopolamine challenge and measured at 30 mins post-scopolamine challenge for 4 days of training trial sessions by Morris water maze test (reference value: 59.8 to 62.2 secs); type: functional
[8] = molecular target: Acetylcholinesterase (Torpedo californica) (UniProt P04058); experiment: Non-competitive inhibition of pacific electric ray AChE pre-incubated with enzyme for 15 mins followed by acetylthiocholine chloride substrate addition by spectrophotometric method based Lineweaver-Burk plot analysis; conditions: Tetronarce californica
Chain of Acetylcholinesterase (Torpedo californica) (P04058 22-564 limits assumed): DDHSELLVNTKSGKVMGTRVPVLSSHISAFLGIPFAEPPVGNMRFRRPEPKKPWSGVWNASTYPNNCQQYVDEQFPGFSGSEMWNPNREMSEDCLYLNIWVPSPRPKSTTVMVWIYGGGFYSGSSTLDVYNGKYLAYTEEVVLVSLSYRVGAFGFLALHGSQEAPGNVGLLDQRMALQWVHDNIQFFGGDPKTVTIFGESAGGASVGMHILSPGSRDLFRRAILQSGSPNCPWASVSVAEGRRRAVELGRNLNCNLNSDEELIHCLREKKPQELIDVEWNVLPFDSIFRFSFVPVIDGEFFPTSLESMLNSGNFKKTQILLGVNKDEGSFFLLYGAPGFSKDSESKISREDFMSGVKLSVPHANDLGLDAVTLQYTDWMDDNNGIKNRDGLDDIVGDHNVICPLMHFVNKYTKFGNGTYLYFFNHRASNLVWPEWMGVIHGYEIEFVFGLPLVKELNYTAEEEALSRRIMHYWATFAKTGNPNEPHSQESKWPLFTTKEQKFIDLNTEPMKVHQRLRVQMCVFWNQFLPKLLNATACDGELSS

Mus musculus [9] = experiment: as §1, with “swimming time” for “path length”, “by” for “by Morris”; type: functional, organism-based
Mus musculus [10] = experiment: as §1, with “deficit” for “impairment”, “number of platform crossings” for “path length in target quadrant”; type: functional, organism-based
[11] = Toxicity in scopolamine-induced cognition deficit ICR mouse model assessed as effect on swimming speed at 20 umol/kg, po treated 30 mins prior to scopolamine challenge and measured at 30 mins post-scopolamine challenge on day 15 of probe trial by Morris water maze test; type: organism-based; conditions: in vivo, 0.5 h
[12] = Toxicity in scopolamine-induced cognition deficit ICR mouse model assessed as effect on total distance travelled at 20 umol/kg, po treated 30 mins prior to scopolamine challenge and measured at 30 mins post-scopolamine challenge on day 15 of probe trial by Morris water maze test; type: organism-based; conditions: in vivo, 0.5 h

COc1cc(/C=C/C(=O)CC(=O)/C=C/c2ccc(O)c(OC)c2)ccc1O
inhibition [1]: Active

COc1cc(-c2ccc3c(c2)OCO3)nc2ccccc12 [GRAVEOLININE]
IC50 (HepG2): > 50 µM
IC50 (Acetylcholinesterase): 36.3 µM
IC50 (Cholinesterase): 28.2 µM
cytotoxicity at 48 h, 10 µM [2]: 8.76%
inhibition [3]: 26.9%
cytotoxicity at 48 h, 10 µM [4]: < 5%
Ratio IC50 [5]: 1.3
IC50 (PC-12): > 50 µM

OCCCNc1cc(-c2ccccc2)nc2ccccc12
IC50 (HepG2): > 50 µM
IC50 (Acetylcholinesterase): > 10 µM
IC50 (Cholinesterase): > 10 µM
cytotoxicity at 48 h, 10 µM [2]: < 5%
inhibition [3]: 36.8%
cytotoxicity at 48 h, 10 µM [4]: < 5%
IC50 (PC-12): > 50 µM

OCCCCCCNc1cc(-c2ccc3c(c2)OCO3)nc2ccccc12
IC50 (HepG2): > 50 µM
IC50 (Acetylcholinesterase): 4.32 µM
IC50 (Cholinesterase): 6.49 µM
cytotoxicity at 48 h, 10 µM [2]: < 5%
inhibition [3]: 39.4%
cytotoxicity at 48 h, 10 µM [4]: < 5%
Ratio IC50 [5]: 0.67
IC50 (PC-12): > 50 µM

OCCCCNc1cc(-c2ccc3c(c2)OCO3)nc2ccccc12
IC50 (HepG2): > 50 µM
IC50 (Acetylcholinesterase): 4.26 µM
IC50 (Cholinesterase): 9.78 µM
cytotoxicity at 48 h, 10 µM [2]: < 5%
inhibition [3]: 44.1%
cytotoxicity at 48 h, 10 µM [4]: 14.7%
Ratio IC50 [5]: 0.44
IC50 (PC-12): 34.3 µM

CCCCNc1cc(-c2ccc3c(c2)OCO3)nc2ccccc12
IC50 (HepG2): > 50 µM
IC50 (Acetylcholinesterase): 4.8 µM
IC50 (Cholinesterase): 7.85 µM
cytotoxicity at 48 h, 10 µM [2]: 15.4%
inhibition [3]: 30.6%
cytotoxicity at 48 h, 10 µM [4]: 11.2%
Ratio IC50 [5]: 0.61
IC50 (PC-12): 46.2 µM

c1ccc2c(N3CCCC3)cc(-c3ccc4c(c3)OCO4)nc2c1
Activity (Mus musculus [6]): Active
Time (Mus musculus [7]): 48.1 s
IC50 (HepG2): > 50 µM
IC50 (Acetylcholinesterase): 0.72 µM
IC50 (Cholinesterase): 0.16 µM
inhibition [8]: Active
Activity (Mus musculus [9]): Active
inhibition [1]: Active
Activity (Mus musculus [10]): Active
cytotoxicity at 48 h, 10 µM [2]: < 5%
Activity [11]: Non-Toxic
inhibition [3]: 62.5%
cytotoxicity at 48 h, 10 µM [4]: < 5%
Ratio IC50 [5]: 4.5
Activity [12]: Non-Toxic
IC50 (PC-12): > 50 µM

c1ccc2c(N3CCCCC3)cc(-c3ccc4c(c3)OCO4)nc2c1
IC50 (HepG2): > 50 µM
IC50 (Acetylcholinesterase): > 10 µM
IC50 (Cholinesterase): 2.09 µM
cytotoxicity at 48 h, 10 µM [2]: < 5%
inhibition [3]: 48.5%
cytotoxicity at 48 h, 10 µM [4]: < 5%
Ratio IC50 [5]: > 4.8
IC50 (PC-12): > 50 µM

OCCCCNc1cc(-c2ccccc2)nc2ccccc12
IC50 (HepG2): > 50 µM
IC50 (Acetylcholinesterase): 9.85 µM
IC50 (Cholinesterase): 4.31 µM
cytotoxicity at 48 h, 10 µM [2]: < 5%
inhibition [3]: 40.7%
cytotoxicity at 48 h, 10 µM [4]: < 5%
Ratio IC50 [5]: 2.3
IC50 (PC-12): > 50 µM

OCCCNc1cc(-c2ccc3c(c2)OCO3)nc2ccccc12
IC50 (HepG2): > 50 µM
IC50 (Acetylcholinesterase): 4.23 µM
IC50 (Cholinesterase): > 10 µM
cytotoxicity at 48 h, 10 µM [2]: < 5%
inhibition [3]: 36.6%
cytotoxicity at 48 h, 10 µM [4]: 8.38%
Ratio IC50 [5]: < 0.42
IC50 (PC-12): > 50 µM

c1ccc(-c2cc(N3CCCC3)c3ccccc3n2)cc1
IC50 (HepG2): 30.9 µM
IC50 (Acetylcholinesterase): 3.71 µM
IC50 (Cholinesterase): 0.43 µM
cytotoxicity at 48 h, 10 µM [2]: 12.6%
inhibition [3]: 57.7%
cytotoxicity at 48 h, 10 µM [4]: 24.2%
Ratio IC50 [5]: 8.6
IC50 (PC-12): 24.7 µM

OCCCCCCNc1cc(-c2ccccc2)nc2ccccc12
IC50 (HepG2): 44.2 µM
IC50 (Acetylcholinesterase): 6.22 µM
IC50 (Cholinesterase): 2.96 µM
cytotoxicity at 48 h, 10 µM [2]: 12%
inhibition [3]: 29.2%
cytotoxicity at 48 h, 10 µM [4]: < 5%
Ratio IC50 [5]: 2.1
IC50 (PC-12): > 50 µM

c1ccc(-c2cc(NCCCN3CCOCC3)c3ccccc3n2)cc1
IC50 (HepG2): 30.1 µM
IC50 (Acetylcholinesterase): > 10 µM
IC50 (Cholinesterase): 4.44 µM
cytotoxicity at 48 h, 10 µM [2]: 12.7%
inhibition [3]: 55.5%
cytotoxicity at 48 h, 10 µM [4]: 12.6%
Ratio IC50 [5]: > 2.3
IC50 (PC-12): 35.2 µM

c1ccc2c(NCCCN3CCOCC3)cc(-c3ccc4c(c3)OCO4)nc2c1
IC50 (HepG2): 17.7 µM
IC50 (Acetylcholinesterase): 3.22 µM
IC50 (Cholinesterase): 8.15 µM
cytotoxicity at 48 h, 10 µM [2]: < 5%
inhibition [3]: 61.6%
cytotoxicity at 48 h, 10 µM [4]: < 5%
Ratio IC50 [5]: 0.4
IC50 (PC-12): > 50 µM

c1ccc2c(NCCCN3CCCCC3)cc(-c3ccc4c(c3)OCO4)nc2c1
IC50 (HepG2): 9.21 µM
IC50 (Acetylcholinesterase): 4.78 µM
IC50 (Cholinesterase): 1.45 µM
cytotoxicity at 48 h, 10 µM [2]: 43.7%
inhibition [3]: 65.6%
cytotoxicity at 48 h, 10 µM [4]: 71.5%
Ratio IC50 [5]: 3.3
IC50 (PC-12): 7.17 µM

c1ccc(-c2cc(NCCCN3CCCCC3)c3ccccc3n2)cc1
IC50 (HepG2): 25.7 µM
IC50 (Acetylcholinesterase): > 10 µM
IC50 (Cholinesterase): 1.19 µM
cytotoxicity at 48 h, 10 µM [2]: 24.1%
inhibition [3]: 60.3%
cytotoxicity at 48 h, 10 µM [4]: 11.6%
Ratio IC50 [5]: > 8.4
IC50 (PC-12): 40.5 µM
